Values of other authors, collected in US20020037319A1, “Drug preparations” (priority 1999, published 2002).
Structures can show the parent of a compound that is named as a salt.

Tests used:
[1] = oral, therapeutic dosages between 100 mg and 200 mg per day

Row | solubility in water | treated patients who experience some form of GI (gastrointestinal) distress [1] | solubility in chloroform (sodium or potassium salt) | solubility in dilute acid (sodium or potassium salt) | solubility in ethanol (sodium or potassium salt) | solubility in methanol (sodium or potassium salt) | SMILES
1 | sparingly soluble | – | – | – | – | – | O=C(O)Cc1ccccc1Nc1c(Cl)cccc1Cl [Diclofenac sodium]
2 | soluble | – | – | – | – | – | O=C(O)Cc1ccccc1Nc1c(Cl)cccc1Cl [diclofenac potassium]
3 | – | more than 50% | practically insoluble | practically insoluble | soluble | freely soluble | O=C(O)Cc1ccccc1Nc1c(Cl)cccc1Cl [diclofenac, 2-[2,6-di-chlorophenyl)amino]benzeneacetic acid, monosodium or monopotassium salt]
